Measured values as given in ChEMBL document CHEMBL3244164, “Synthesis and analgesic activity of 1,3-dihydro-3-(substituted phenyl)imidazo[4,5-b]pyridin-2-ones and 3-(substituted phenyl)-1,2,3-triazolo[4,5-b]pyridines” (J Med Chem, 1978).
Activity calls are given as the source filed them.

Legend:
Rattus norvegicus [1] = test: Analgesic activity in Sprague-Dawley rat brewer's yeast treated foot assessed as response threshold at 8 mg/kg, po; format: functional
Rattus norvegicus [2] = test: Analgesic activity in Sprague-Dawley rat normal foot assessed as response threshold at 8 to 16 mg/kg, po; format: functional; conditions: dose mg/kg 8-16
Rattus norvegicus [3] = test: Analgesic activity in Sprague-Dawley rat assessed as increase in mean reaction time at 5 mg/kg, po after 1 hr relative to control; format: functional
Rattus norvegicus [4] = test: Analgesic activity in Sprague-Dawley rat assessed as increase in mean reaction time at 5 mg/kg, po after 2 hrs relative to control; format: functional
Rattus norvegicus [5] = test: Analgesic activity in Sprague-Dawley rat assessed as increase in mean reaction time at 5 mg/kg, po after 3 hrs relative to control; format: functional
Rattus norvegicus [6] = test: Analgesic activity in Sprague-Dawley rat assessed as increase in mean reaction time at 5 mg/kg, po after 4 hrs relative to control; format: functional
Rattus norvegicus [7] = test: Analgesic activity in Sprague-Dawley rat assessed as increase in mean reaction time at 5 mg/kg, po after 5 hrs relative to control; format: functional
Rattus norvegicus [8] = test: Analgesic activity in Sprague-Dawley rat assessed as increase in mean reaction time at 10 mg/kg, po after 1 hr relative to control; format: functional
Rattus norvegicus [9] = test: Analgesic activity in Sprague-Dawley rat assessed as increase in mean reaction time at 10 mg/kg, po after 2 hrs relative to control; format: functional
Rattus norvegicus [10] = test: Analgesic activity in Sprague-Dawley rat assessed as increase in mean reaction time at 10 mg/kg, po after 3 hrs relative to control; format: functional
Rattus norvegicus [11] = test: Analgesic activity in Sprague-Dawley rat assessed as increase in mean reaction time at 10 mg/kg, po after 4 hrs relative to control; format: functional
Rattus norvegicus [12] = test: Analgesic activity in Sprague-Dawley rat assessed as increase in mean reaction time at 10 mg/kg, po after 5 hrs relative to control; format: functional
Rattus norvegicus [13] = test: Analgesic activity in Sprague-Dawley rat assessed as increase in mean reaction time at 20 mg/kg, po after 1 hr relative to control; format: functional
Rattus norvegicus [14] = test: Analgesic activity in Sprague-Dawley rat assessed as increase in mean reaction time at 20 mg/kg, po after 2 hrs relative to control; format: functional
Rattus norvegicus [15] = test: Analgesic activity in Sprague-Dawley rat assessed as increase in mean reaction time at 20 mg/kg, po after 3 hrs relative to control; format: functional
Rattus norvegicus [16] = test: Analgesic activity in Sprague-Dawley rat assessed as increase in mean reaction time at 20 mg/kg, po after 4 hrs relative to control; format: functional
Rattus norvegicus [17] = test: Analgesic activity in Sprague-Dawley rat assessed as increase in mean reaction time at 20 mg/kg, po after 5 hrs relative to control; format: functional
Rattus norvegicus [18] = test: Analgesic activity in Sprague-Dawley rat hyperesthesia model inflamed foot assessed as mean pain reaction threshold at 5 mg/kg, po after 1 hr; format: functional
Rattus norvegicus [19] = test: Analgesic activity in Sprague-Dawley rat hyperesthesia model inflamed foot assessed as mean pain reaction threshold at 10 mg/kg, po after 1 hr; format: functional
Rattus norvegicus [20] = test: Analgesic activity in Sprague-Dawley rat hyperesthesia model inflamed foot assessed as mean pain reaction threshold at 20 mg/kg, po after 1 hr; format: functional
Rattus norvegicus [21] = test: Analgesic activity in Sprague-Dawley rat hyperesthesia model normal foot assessed as mean pain reaction threshold at 5 mg/kg, po after 1 hr; format: functional
Rattus norvegicus [22] = test: Analgesic activity in Sprague-Dawley rat hyperesthesia model normal foot assessed as mean pain reaction threshold at 10 mg/kg, po after 1 hr; format: functional
Rattus norvegicus [23] = test: Analgesic activity in Sprague-Dawley rat hyperesthesia model normal foot assessed as mean pain reaction threshold at 20 mg/kg, po after 1 hr; format: functional
Rattus norvegicus [24] = test: Analgesic activity in naloxone treated Sprague-Dawley rat hyperesthesia model inflamed foot assessed as mean pain reaction threshold at 5 mg/kg, po after 1 hr; format: functional
Rattus norvegicus [25] = test: Analgesic activity in naloxone treated Sprague-Dawley rat hyperesthesia model inflamed foot assessed as mean pain reaction threshold at 10 mg/kg, po after 1 hr; format: functional
Rattus norvegicus [26] = test: Analgesic activity in naloxone treated Sprague-Dawley rat hyperesthesia model inflamed foot assessed as mean pain reaction threshold at 20 mg/kg, po after 1 hr; format: functional
Rattus norvegicus [27] = test: Analgesic activity in naloxone treated Sprague-Dawley rat hyperesthesia model normal foot assessed as mean pain reaction threshold at 5 mg/kg, po after 1 hr; format: functional
Rattus norvegicus [28] = test: Analgesic activity in naloxone treated Sprague-Dawley rat hyperesthesia model normal foot assessed as mean pain reaction threshold at 10 mg/kg, po after 1 hr; format: functional
Rattus norvegicus [29] = test: Analgesic activity in naloxone treated Sprague-Dawley rat hyperesthesia model normal foot assessed as mean pain reaction threshold at 20 mg/kg, po after 1 hr; format: functional
Rattus norvegicus [30] = test: Antiinflammatory activity in Sprague-Dawley rat assessed as inhibition of carrageenan-induced paw edema at 30 mg/kg, po; format: functional
Rattus norvegicus [31] = test: Antiarthritic activity in Lewis rat assessed as inhibition of adjuvant-induced paw swelling at 50 mg/kg, po qd for 13 days measured on day 14; format: functional
Rattus norvegicus [32] = test: Analgesic activity in Sprague-Dawley rat brewer's yeast treated foot assessed as response threshold at 16 to 32 mg/kg, po; format: functional; conditions: dose mg/kg 16-32
Rattus norvegicus [33] = test: Analgesic activity in Sprague-Dawley rat normal foot assessed as response threshold at 32 mg/kg, po; format: functional
Rattus norvegicus [34] = test: Analgesic activity in Sprague-Dawley rat assessed as increase in mean reaction time at 30 mg/kg, po after 1 hr relative to control; format: functional
Rattus norvegicus [35] = test: Analgesic activity in Sprague-Dawley rat assessed as increase in mean reaction time at 30 mg/kg, po after 2 hrs relative to control; format: functional
Rattus norvegicus [36] = test: Analgesic activity in Sprague-Dawley rat assessed as increase in mean reaction time at 30 mg/kg, po after 3 hrs relative to control; format: functional
Rattus norvegicus [37] = test: Analgesic activity in Sprague-Dawley rat assessed as increase in mean reaction time at 30 mg/kg, po after 4 hrs relative to control; format: functional
Rattus norvegicus [38] = test: Analgesic activity in Sprague-Dawley rat assessed as increase in mean reaction time at 30 mg/kg, po after 5 hrs relative to control; format: functional
Rattus norvegicus [39] = test: Analgesic activity in Sprague-Dawley rat assessed as increase in mean reaction time at 60 mg/kg, po after 1 hr relative to control; format: functional
Rattus norvegicus [40] = test: Analgesic activity in Sprague-Dawley rat assessed as increase in mean reaction time at 60 mg/kg, po after 2 hrs relative to control; format: functional
Rattus norvegicus [41] = test: Analgesic activity in Sprague-Dawley rat assessed as increase in mean reaction time at 60 mg/kg, po after 3 hrs relative to control; format: functional
Rattus norvegicus [42] = test: Analgesic activity in Sprague-Dawley rat assessed as increase in mean reaction time at 60 mg/kg, po after 4 hrs relative to control; format: functional
Rattus norvegicus [43] = test: Analgesic activity in Sprague-Dawley rat assessed as increase in mean reaction time at 60 mg/kg, po after 5 hrs relative to control; format: functional
Rattus norvegicus [44] = test: Analgesic activity in Sprague-Dawley rat assessed as increase in mean reaction time at 120 mg/kg, po after 1 hr relative to control; format: functional
Rattus norvegicus [45] = test: Analgesic activity in Sprague-Dawley rat assessed as increase in mean reaction time at 120 mg/kg, po after 2 hrs relative to control; format: functional
Rattus norvegicus [46] = test: Analgesic activity in Sprague-Dawley rat assessed as increase in mean reaction time at 120 mg/kg, po after 3 hrs relative to control; format: functional
Rattus norvegicus [47] = test: Analgesic activity in Sprague-Dawley rat assessed as increase in mean reaction time at 120 mg/kg, po after 4 hrs relative to control; format: functional
Rattus norvegicus [48] = test: Analgesic activity in Sprague-Dawley rat assessed as increase in mean reaction time at 120 mg/kg, po after 5 hrs relative to control; format: functional
Rattus norvegicus [49] = test: Analgesic activity in Sprague-Dawley rat assessed as increase in mean reaction time at 90 mg/kg, po after 1 hr relative to control; format: functional
Rattus norvegicus [50] = test: Analgesic activity in Sprague-Dawley rat assessed as increase in mean reaction time at 90 mg/kg, po after 2 hrs relative to control; format: functional
Rattus norvegicus [51] = test: Analgesic activity in Sprague-Dawley rat assessed as increase in mean reaction time at 90 mg/kg, po after 3 hrs relative to control; format: functional
Rattus norvegicus [52] = test: Analgesic activity in Sprague-Dawley rat assessed as increase in mean reaction time at 90 mg/kg, po after 4 hrs relative to control; format: functional
Rattus norvegicus [53] = test: Analgesic activity in Sprague-Dawley rat assessed as increase in mean reaction time at 90 mg/kg, po after 5 hrs relative to control; format: functional
Rattus norvegicus [54] = test: Toxicity in Sprague-Dawley rat assessed as sedation at 90 mg/kg, po after 1 hr relative to control; format: organism-based; design: dose 90 mg/kg, route oral; conditions: in vivo
Rattus norvegicus [55] = test: Toxicity in Sprague-Dawley rat assessed as sedation at 90 mg/kg, po after 2 hrs relative to control; format: organism-based; design: dose 90 mg/kg, route oral; conditions: in vivo
Rattus norvegicus [56] = test: Toxicity in Sprague-Dawley rat assessed as sedation at 90 mg/kg, po after 3 hrs relative to control; format: organism-based; design: dose 90 mg/kg, route oral; conditions: in vivo
Rattus norvegicus [57] = test: Toxicity in Sprague-Dawley rat assessed as sedation at 90 mg/kg, po after 4 hrs relative to control; format: organism-based; design: dose 90 mg/kg, route oral; conditions: in vivo
Rattus norvegicus [58] = test: Toxicity in Sprague-Dawley rat assessed as sedation at 90 mg/kg, po after 5 hrs relative to control; format: organism-based; design: dose 90 mg/kg, route oral; conditions: in vivo
Mus musculus [59] = test: Analgesic activity in naloxone treated mouse assessed as withdrawal latency at 12.5 to 75 mg/kg, po; format: functional, organism-based
Mus musculus [60] = test: Analgesic activity in mouse assessed as withdrawal latency at 12.5 to 75 mg/kg, po by Haffner tail clamp method; format: functional, organism-based

`C=CCn1c(=O)n(-c2ccc3c(c2)OCO3)c2ncccc21` was tested, and the Activity (Rattus norvegicus [1]) was over 34 mm, the Activity (Rattus norvegicus [2]) was over 50 mm and the Time (Rattus norvegicus [3]) was 0.1 s. It also gave a Time (Rattus norvegicus [4]) of 3.8 s, a Time (Rattus norvegicus [5]) of 5.3 s and a Time (Rattus norvegicus [6]) of 3.9 s. It also gave a Time (Rattus norvegicus [7]) of 0 s, a Time (Rattus norvegicus [8]) of 8.8 s and a Time (Rattus norvegicus [9]) of 7.3 s. It also gave a Time (Rattus norvegicus [10]) of 11.6 s, a Time (Rattus norvegicus [11]) of 7.1 s and a Time (Rattus norvegicus [12]) of 6.2 s. For the same compound, the Time (Rattus norvegicus [13]) was 13.5 s, the Time (Rattus norvegicus [14]) was 21.7 s and the Time (Rattus norvegicus [15]) was 24.4 s. The Time (Rattus norvegicus [16]) was 28.1 s, the Time (Rattus norvegicus [17]) was 24.5 s and the Activity (Rattus norvegicus [18]) was 28.8 mmHg. The Activity (Rattus norvegicus [19]) was 44.4 mmHg, the Activity (Rattus norvegicus [20]) was 74.4 mmHg and the Activity (Rattus norvegicus [21]) was 40.5 mmHg. For the same compound, the Activity (Rattus norvegicus [22]) was 52.3 mmHg, the Activity (Rattus norvegicus [23]) was 88.5 mmHg and the Activity (Rattus norvegicus [24]) was 33.4 mmHg. The Activity (Rattus norvegicus [25]) was 47.8 mmHg, the Activity (Rattus norvegicus [26]) was 66.6 mmHg and the Activity (Rattus norvegicus [27]) was 38.4 mmHg. The Activity (Rattus norvegicus [28]) was 71.1 mmHg, the Activity (Rattus norvegicus [29]) was 79.3 mmHg and the inhibition in vivo at 30 mg/kg (Rattus norvegicus [30]) was 42%. For the same compound, the inhibition in vivo at 50 mg/kg (Rattus norvegicus [31]) was 78.2%.
In the case of `CCC(=O)O[C@](Cc1ccccc1)(c1ccccc1)[C@H](C)CN(C)C` [PROPOXYPHENE], the Activity (Rattus norvegicus [32]) is reported as over 25 mm, the Activity (Rattus norvegicus [33]) is reported as 40 mm and the Time (Rattus norvegicus [34]) is reported as -3.2 s. For the same compound, the Time (Rattus norvegicus [35]) was -2.6 s, the Time (Rattus norvegicus [36]) was -4.4 s and the Time (Rattus norvegicus [37]) was -0.8 s. For the same compound, the Time (Rattus norvegicus [38]) was 0.1 s, the Time (Rattus norvegicus [39]) was -3 s and the Time (Rattus norvegicus [40]) was -0.8 s. The Time (Rattus norvegicus [41]) was -2.4 s, the Time (Rattus norvegicus [42]) was -0.8 s and the Time (Rattus norvegicus [43]) was -1.1 s. It also gave a Time (Rattus norvegicus [44]) of 41.9 s, a Time (Rattus norvegicus [45]) of 30 s and a Time (Rattus norvegicus [46]) of 24.5 s. For the same compound, the Time (Rattus norvegicus [47]) was 15 s, the Time (Rattus norvegicus [48]) was 3.6 s and the Time (Rattus norvegicus [49]) was 40.6 s. For the same compound, the Time (Rattus norvegicus [50]) was 42 s, the Time (Rattus norvegicus [51]) was 40.7 s and the Time (Rattus norvegicus [52]) was 36.4 s. For the same compound, the Time (Rattus norvegicus [53]) was 10.5 s, the Activity (Rattus norvegicus [54]) was “Toxic” and the Activity (Rattus norvegicus [55]) was “Toxic”. The Activity (Rattus norvegicus [56]) was “Toxic”, the Activity (Rattus norvegicus [57]) was “Toxic” and the Activity (Rattus norvegicus [58]) was “Toxic”. The Activity (Mus musculus [59]) was “inactive”, the Activity (Mus musculus [60]) was “Active” and the inhibition in vivo at 30 mg/kg (Rattus norvegicus [30]) was 23%. The inhibition in vivo at 50 mg/kg (Rattus norvegicus [31]) was 56.2%.
